Assay results taken from US4400384A, “5-o-Cyanobenzyl-4,5,6,7-tetrahydrothieno [3,2-c] pyridine methanesulfonate and other novel salts thereof” (Sanofi, S.A., priority 1980, dated 1983).
Where a name gives a salt, the structure may show the parent alone.

How the values were obtained:
[1] = test system: blood-platelet aggregation (ADP); experiment: Inhibitor action on blood-platelet aggregation, ADP method (ex vivo after gastric tube dosing); type: in vivo, female rats of the Wistar type; conditions: 100 mg/Kg base equivalent at 48, 24 and 2 h before blood drawing
Description: (§1) The inhibitor action on blood-platelet aggregation of the salts of the present invention was determined by two different standard methods known to the art.
(§2) The first method, involving the use of ADP (adenosine diphosphate), is that of Ferrand J. C., Gaich C., Dumas, A.--EVALUATION DE L' EFFET ANTI-AGREGANT DE LA TICLOPIDINE PAR UNE TECHNIQUE SUR SANG TOTAL. COMM. SOCIETE DE BIOLOGIE DE TOULOUSE (TOULOUSE Feb. 9, 1978), RESUME IN: REV MED TOULOUSE, 1978, 14, (SUPPL. 5) 680, referred to hereinafter as the ADP method.
(§3) Groups of 10 female rats of the Wistar type were each dosed with one of the base or one of the salts of the invention and with the corresponding maleate salt of Amselem U.S. Pat. No. 4,097,482, at periods of 48 hours, 24 hours and 2 hours prior to drawing blood for testing by the ADP and collagen techniques referred to above. The active medicaments were administered by means of a gastric tube in the form of a 5% aqueous solution of gum arabic. A dosage level of 100 mg/Kg was used for the base, and for the salts an amount was used sufficient to provide the equivalent amount of the base portion of the salt.

[2] = test system: blood-platelet aggregation (collagen); experiment: Inhibitor action on blood-platelet aggregation, collagen method (ex vivo after gastric tube dosing); type: in vivo, female rats of the Wistar type; conditions: 100 mg/Kg base equivalent at 48, 24 and 2 h before blood drawing
Description: as §1
(§4) The second method is that described in Ferrand J. C., Lale A.--NUMERATION ET AGREGATION PLAQUETTAIRE A L AIDE DE L AUTOCOUNTER. APPLICATION A L ETUDE DE LA TICLOPIDINE. COMM. SYMPOSIUM TECHNICON INDUSTRIE (PARIS, June 15, 1978); Ferrand J. C., Lale A.--EVALUATION EX-VIVO DE L AGREGATION PLAQUETTAIRE PAR UNE TECHNIQUE AUTOMATIQUE SUR SANG TOTAL COMM. SOCIETE FRANCAISE DE BIOLOGIE CLINIQUE (PARIS Sept. 28, 1979); and J. C. Ferrand, A. Lale, D. Aubert and G. Barthelemy--APPRECIATION QUANTITATIVE DE L' ACTIVITE ANTI-AGREGANTE DE LA TICLOPIDINE PAR VOIE AUTOMATIQUE. COMM. REUNION DE L' ASOCIATION FRANCAISE DE PHARMACOLOGISTES DIJON (May 2-3, 1980), and is referred to hereafter as the collagen method.
as §3

[3] = prior art maleate; cited from earlier work
[4] = test system: blood-platelet aggregation; experiment: Inhibition of blood-platelet aggregation (general statement); type: in vivo; conditions: result in words
Description: as §1, §2
as §4, with “method. […]” for “method.”

[5] = prior art maleate; cited from earlier work; remark: listed apart in the source

SMILES | BLOOD PLATELET AGGREGATION, ADP, 1 mn 30 s ([1]; controls 0.29, 100 mg/kg) | BLOOD PLATELET AGGREGATION, ADP, 3 mn ([1]; controls 0.40, 100 mg/kg) | BLOOD PLATELET AGGREGATION, COLLAGEN ([2]; controls 2.53, 100 mg/kg) | anti-inflammatory activity (prior art salt) [3] | BLOOD PLATELET AGGREGATION, ADP, 1 mn 30 s ([1]; controls 0.29) | BLOOD PLATELET AGGREGATION, ADP, 3 mn ([1]; controls 0.40) | inhibitor action against blood-platelet aggregation [4] | BLOOD PLATELET AGGREGATION, COLLAGEN ([2]; controls 2.53) | vasodilator activity (prior art salt) [5]
N#Cc1ccccc1CN1CCc2sccc2C1 [Hemifumarate, 5-o-cyanobenzyl-4,5,6,7-tetrahydrothieno [3,2-c] pyridine] | 0.76 | 0.82 | 0.42 | – | – | – | – | – | –
N#Cc1ccccc1CN1CCc2sccc2C1 [Hemitartrate, 5-o-cyanobenzyl-4,5,6,7-tetrahydrothieno [3,2-c] pyridine] | 0.74 | 0.84 | 0.74 | – | – | – | – | – | –
N#Cc1ccccc1CN1CCc2sccc2C1 [Hydrochloride, 5-o-cyanobenzyl-4,5,6,7-tetrahydrothieno [3,2-c] pyridine] | 0.82 | 0.82 | 0.84 | – | – | – | – | – | –
N#Cc1ccccc1CN1CCc2sccc2C1.O=C(O)/C=C\C(=O)O [Maleate, 5-o-cyanobenzyl-4,5,6,7-tetrahydrothieno [3,2-c] pyridine maleate, reference compound] | – | – | – | not free of anti-inflammatory | 0.70 | 0.81 | substantial activity in the inhibition of blood-platelet aggregation | 0.80 | not free of anti-inflammatory or vasodilator activity
N#Cc1ccccc1CN1CCc2sccc2C1 [Nitrate, 5-o-cyanobenzyl-4,5,6,7-tetrahydrothieno [3,2-c] pyridine] | 0.84 | 0.83 | 0.91 | – | – | – | – | – | –
